According to US7547519B2, “Methods of diagnosing multidrug resistant tuberculosis” (The United States of America as represented by the …, priority 2000, dated 2009):
Converted amounts (≈) assume the structure as drawn.

Tests used:
[1] = tested on: MTb patient isolates; format: cell-based, Mycobacterium tuberculosis
[2] = tested on: MTb H37Rv; test: microbe, parasite or virus in culture; conditions: Mycobacterium tuberculosis
[3] = tested on: MTb H37Rv

Row | SMILES | isolates cross-resistant [1] | susceptibility of isolates without mutations in EtaA, EtaR or promoter regions [1] | MIC [2] [µg/mL] | growth of transformants [3]
1 | CCc1cc(C(N)=S)ccn1 [ETA, ethionamide] | Eleven of fourteen | fully sensitive | 2.5 to 5 (≈ 15 to 30.1 µM) | grew as a lawn at 2.5 and 5 μg/ml ETA
2 | CC(C)CCOc1ccc(NC(=S)Nc2ccc(OCCC(C)C)cc2)cc1 [thiocarlide] | thirteen out of fourteen |  |  | 
